From ChEMBL document CHEMBL1201862, “PubChem BioAssay data set” (2004)
Calls of active or inactive are those of the source.

Experiments:
[1] = molecular target: Peroxisome proliferator-activated receptor gamma/Nuclear receptor coactivator 1 (Homo sapiens, UniProt P37231); type: functional;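 note: agonist potency as compounds enhance coactivator SRC-1 recruitment to PPARgamma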
[2] = molecular target: Peroxisome proliferator-activated receptor gamma/Nuclear receptor coactivator 2 (Homo sapiens, UniProt P37231); type: functional;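 note: agonist potency for raising coactivator recruitment to the receptor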
Peroxisome proliferator-activated receptor gamma/Nuclear receptor coactivator 2, sequence (P37231 whole entry): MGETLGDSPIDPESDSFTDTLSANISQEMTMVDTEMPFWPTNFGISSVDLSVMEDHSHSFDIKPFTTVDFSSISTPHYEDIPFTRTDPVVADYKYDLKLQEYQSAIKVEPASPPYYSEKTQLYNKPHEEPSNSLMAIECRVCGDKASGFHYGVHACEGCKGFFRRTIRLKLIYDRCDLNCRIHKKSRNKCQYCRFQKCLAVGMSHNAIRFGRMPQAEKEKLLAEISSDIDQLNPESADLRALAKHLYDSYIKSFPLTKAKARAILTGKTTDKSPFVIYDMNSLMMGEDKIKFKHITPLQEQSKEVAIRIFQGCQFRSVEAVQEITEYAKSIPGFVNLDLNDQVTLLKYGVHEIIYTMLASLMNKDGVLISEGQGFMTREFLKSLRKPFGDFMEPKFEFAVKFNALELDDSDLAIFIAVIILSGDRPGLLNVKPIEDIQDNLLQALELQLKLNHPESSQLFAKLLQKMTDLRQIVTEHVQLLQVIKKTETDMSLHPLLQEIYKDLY
Peroxisome proliferator-activated receptor gamma/Nuclear receptor coactivator 2, sequence (Q15596 whole entry, further chain): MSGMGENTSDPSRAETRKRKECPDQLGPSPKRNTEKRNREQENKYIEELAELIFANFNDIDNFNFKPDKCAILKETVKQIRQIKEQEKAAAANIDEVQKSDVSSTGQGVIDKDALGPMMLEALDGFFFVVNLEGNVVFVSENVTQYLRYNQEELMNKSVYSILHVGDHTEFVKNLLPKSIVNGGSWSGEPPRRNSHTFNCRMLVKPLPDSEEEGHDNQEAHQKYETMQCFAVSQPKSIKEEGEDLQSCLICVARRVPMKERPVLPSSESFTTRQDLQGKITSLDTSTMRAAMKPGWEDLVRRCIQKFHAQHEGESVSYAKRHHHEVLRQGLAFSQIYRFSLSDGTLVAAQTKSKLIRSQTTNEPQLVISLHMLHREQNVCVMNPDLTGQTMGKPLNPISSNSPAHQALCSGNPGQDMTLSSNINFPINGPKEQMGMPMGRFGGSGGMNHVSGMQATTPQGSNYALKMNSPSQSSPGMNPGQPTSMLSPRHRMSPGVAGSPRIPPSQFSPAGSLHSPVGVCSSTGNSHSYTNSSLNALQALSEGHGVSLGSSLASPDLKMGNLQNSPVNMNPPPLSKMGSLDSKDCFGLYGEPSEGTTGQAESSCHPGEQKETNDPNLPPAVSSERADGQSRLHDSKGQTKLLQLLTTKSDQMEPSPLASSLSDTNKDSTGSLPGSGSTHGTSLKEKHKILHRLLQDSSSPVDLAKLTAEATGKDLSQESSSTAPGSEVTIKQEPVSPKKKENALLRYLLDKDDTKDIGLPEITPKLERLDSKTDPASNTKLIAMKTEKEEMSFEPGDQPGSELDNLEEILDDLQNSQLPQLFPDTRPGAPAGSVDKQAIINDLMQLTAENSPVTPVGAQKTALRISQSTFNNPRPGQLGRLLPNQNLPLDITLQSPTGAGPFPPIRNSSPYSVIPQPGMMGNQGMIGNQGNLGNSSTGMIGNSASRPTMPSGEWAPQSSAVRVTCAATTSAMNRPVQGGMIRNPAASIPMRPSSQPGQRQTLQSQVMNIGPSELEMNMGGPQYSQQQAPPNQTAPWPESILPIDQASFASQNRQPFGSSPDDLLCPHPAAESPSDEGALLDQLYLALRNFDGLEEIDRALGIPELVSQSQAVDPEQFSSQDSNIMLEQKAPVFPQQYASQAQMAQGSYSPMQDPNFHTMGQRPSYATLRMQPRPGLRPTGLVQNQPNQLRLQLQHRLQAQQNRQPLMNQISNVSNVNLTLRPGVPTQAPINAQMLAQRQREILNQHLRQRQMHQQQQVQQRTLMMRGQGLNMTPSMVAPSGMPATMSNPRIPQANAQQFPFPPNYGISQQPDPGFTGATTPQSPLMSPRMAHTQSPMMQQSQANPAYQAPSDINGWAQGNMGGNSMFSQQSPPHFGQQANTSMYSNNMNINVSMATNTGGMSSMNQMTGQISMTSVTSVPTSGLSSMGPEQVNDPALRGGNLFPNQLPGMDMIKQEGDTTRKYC

[3] = molecular target: Peroxisome proliferator-activated receptor gamma/Nuclear receptor coactivator 3 (Homo sapiens, UniProt P37231); type: functional;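 note: agonist potency for raising coactivator recruitment to the receptor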
[4] = viability of uninfected HEp-2 cells – cell-based, HTS, cytotoxicity control for RSV inhibitor project, dose response (AID 2410); type: functional; details: human respiratory syncytial virus
[5] = cells
[6] = molecular target: T1, Aminopeptidase N (Plasmodium falciparum FcB1/Columbia, UniProt O96935); test: malaria alanyl aminopeptidase activity blockers – biochemical, fluorogenic H-Leu-NHMec substrate, 1536-well (AID 1445); design: species or system Plasmodium falciparum 3D7, 3D7
T1 sequence (O96935 whole entry): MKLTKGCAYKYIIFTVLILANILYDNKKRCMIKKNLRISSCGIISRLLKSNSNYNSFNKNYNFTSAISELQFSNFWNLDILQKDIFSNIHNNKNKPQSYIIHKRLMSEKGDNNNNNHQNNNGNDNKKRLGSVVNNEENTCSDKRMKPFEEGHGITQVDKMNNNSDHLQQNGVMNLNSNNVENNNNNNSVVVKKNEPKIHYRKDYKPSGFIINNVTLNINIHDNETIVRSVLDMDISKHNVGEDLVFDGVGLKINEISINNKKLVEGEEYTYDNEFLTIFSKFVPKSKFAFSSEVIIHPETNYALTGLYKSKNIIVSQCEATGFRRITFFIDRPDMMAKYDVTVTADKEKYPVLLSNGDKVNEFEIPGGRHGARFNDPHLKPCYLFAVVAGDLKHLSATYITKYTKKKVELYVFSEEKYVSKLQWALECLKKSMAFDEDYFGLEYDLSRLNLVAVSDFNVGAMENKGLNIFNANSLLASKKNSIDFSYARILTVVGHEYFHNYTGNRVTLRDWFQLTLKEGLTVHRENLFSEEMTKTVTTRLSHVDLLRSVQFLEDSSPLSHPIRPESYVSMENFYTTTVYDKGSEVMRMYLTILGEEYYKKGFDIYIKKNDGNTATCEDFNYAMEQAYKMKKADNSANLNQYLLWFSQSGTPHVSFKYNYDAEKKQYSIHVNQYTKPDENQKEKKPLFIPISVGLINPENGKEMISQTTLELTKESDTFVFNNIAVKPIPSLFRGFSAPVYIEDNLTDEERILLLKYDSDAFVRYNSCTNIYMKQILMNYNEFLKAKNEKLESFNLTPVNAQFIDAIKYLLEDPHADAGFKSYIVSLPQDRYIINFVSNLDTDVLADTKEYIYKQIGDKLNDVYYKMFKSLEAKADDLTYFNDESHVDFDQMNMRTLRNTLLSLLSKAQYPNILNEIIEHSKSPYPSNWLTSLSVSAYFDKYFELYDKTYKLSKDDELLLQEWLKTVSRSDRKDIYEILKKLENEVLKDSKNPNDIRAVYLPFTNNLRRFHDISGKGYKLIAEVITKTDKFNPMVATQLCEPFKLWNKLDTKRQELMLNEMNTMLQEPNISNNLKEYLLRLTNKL

[7] = molecular target: T2, Leucine aminopeptidase (Plasmodium falciparum 3D7, UniProt Q8IL11); test: P. falciparum M17LAP inhibitors, primary screen, biochemical, fluorogenic H-Leu-NHMec substrate, 1536-well (AID 1619); type: functional
T2 sequence (Q8IL11 whole entry): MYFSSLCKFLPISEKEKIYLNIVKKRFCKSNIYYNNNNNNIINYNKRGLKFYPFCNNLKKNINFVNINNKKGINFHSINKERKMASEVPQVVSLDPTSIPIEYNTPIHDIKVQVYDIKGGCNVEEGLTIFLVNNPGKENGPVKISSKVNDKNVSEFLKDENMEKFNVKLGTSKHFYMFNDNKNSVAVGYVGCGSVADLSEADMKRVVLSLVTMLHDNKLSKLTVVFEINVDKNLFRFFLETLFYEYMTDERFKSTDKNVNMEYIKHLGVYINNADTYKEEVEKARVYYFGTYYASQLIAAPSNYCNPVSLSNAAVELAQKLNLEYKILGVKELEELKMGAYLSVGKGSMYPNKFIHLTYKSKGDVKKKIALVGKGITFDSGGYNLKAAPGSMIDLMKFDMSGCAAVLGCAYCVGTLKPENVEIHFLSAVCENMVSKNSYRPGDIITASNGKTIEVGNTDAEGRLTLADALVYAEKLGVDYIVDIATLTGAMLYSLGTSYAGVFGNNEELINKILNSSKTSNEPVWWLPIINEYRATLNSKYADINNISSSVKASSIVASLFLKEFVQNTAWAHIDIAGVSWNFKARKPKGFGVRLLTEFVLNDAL

[8] = molecular target: Procathepsin L (Homo sapiens, UniProt P07711); test: CTSL1 protease inhibition – biochemical, QFRET, 1536-well, counter-screen for M1/M17 aminopeptidase inhibitor project, dose response (AID 2214)
Procathepsin L, sequence (P07711 whole entry): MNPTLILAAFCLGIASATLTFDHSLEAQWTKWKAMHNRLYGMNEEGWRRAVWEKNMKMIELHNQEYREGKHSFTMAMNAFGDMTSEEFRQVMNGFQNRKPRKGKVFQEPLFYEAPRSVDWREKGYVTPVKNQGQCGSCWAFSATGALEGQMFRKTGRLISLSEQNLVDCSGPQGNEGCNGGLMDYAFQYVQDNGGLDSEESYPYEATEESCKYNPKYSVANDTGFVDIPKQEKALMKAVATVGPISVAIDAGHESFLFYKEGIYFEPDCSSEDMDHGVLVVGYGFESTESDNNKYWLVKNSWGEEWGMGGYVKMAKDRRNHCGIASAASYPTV

[9] = molecular target: T3, Aspartyl aminopeptidase (Plasmodium falciparum 3D7, UniProt Q8I2J3); test: Counterscreen for inhibitors of M1 and M17 aminopeptidases: QFRET-based biochemical high throughput dose response assay for inhibitors of the Plasmodium falciparum M18 Aspartyl Aminopeptidase (PFM18AAP). [Related PubChem assays: 1619 (Screening assay (M17LAP inhibitors).), 1445 (Screening assay (M1AAP inhibitors).)]
T3 sequence (Q8I2J3 whole entry): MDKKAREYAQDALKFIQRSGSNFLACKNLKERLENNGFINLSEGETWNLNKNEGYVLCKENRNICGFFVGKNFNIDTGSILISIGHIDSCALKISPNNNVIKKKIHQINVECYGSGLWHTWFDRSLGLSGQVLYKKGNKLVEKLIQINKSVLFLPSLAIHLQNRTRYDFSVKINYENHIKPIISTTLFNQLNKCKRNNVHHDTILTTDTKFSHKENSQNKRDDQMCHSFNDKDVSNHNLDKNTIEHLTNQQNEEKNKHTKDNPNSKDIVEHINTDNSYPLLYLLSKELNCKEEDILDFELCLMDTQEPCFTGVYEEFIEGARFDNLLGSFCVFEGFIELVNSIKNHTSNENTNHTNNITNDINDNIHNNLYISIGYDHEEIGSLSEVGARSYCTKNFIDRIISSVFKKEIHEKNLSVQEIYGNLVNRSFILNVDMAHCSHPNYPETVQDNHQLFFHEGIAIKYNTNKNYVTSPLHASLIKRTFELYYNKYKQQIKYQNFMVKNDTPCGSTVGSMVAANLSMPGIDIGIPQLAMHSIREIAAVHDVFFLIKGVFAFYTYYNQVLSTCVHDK

[10] = A Cell Based Secondary Assay To Explore Cytotoxicity of Compounds that Sensitize Mycobacterium Tuberculosis to Beta-Lactam Antibiotics.; type: functional
[11] = molecular target: T4, High affinity choline transporter 1 (Homo sapiens, UniProt Q9GZV3); test: human choline transporter blockers, potency – cell-based, 5-point CRC, membrane potential dye, dose response (AID 504840); type: functional
T4 sequence (Q9GZV3 whole entry): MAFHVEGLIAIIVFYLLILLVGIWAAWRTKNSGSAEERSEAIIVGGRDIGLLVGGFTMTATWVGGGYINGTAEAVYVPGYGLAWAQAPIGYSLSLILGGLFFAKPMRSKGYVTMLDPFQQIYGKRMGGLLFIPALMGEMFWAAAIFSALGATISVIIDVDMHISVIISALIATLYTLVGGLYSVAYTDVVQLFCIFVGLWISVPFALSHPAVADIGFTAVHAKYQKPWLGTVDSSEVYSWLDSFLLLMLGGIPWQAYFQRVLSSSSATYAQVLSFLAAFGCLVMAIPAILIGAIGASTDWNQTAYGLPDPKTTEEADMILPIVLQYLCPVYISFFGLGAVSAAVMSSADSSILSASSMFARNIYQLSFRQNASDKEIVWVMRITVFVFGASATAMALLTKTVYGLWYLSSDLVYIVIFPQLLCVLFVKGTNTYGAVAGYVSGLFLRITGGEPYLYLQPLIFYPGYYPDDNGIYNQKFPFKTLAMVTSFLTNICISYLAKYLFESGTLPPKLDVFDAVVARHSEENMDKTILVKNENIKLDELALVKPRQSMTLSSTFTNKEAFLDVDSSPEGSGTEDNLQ

[12] = molecular target: Genome polyprotein (dengue virus type 2, UniProt P29990); test: flavivirus cap methylation enzyme inhibition – biochemical, confirmation dose response, primary screen (AID 588689); type: functional
[13] = molecular target: T5, Replicative DNA helicase DnaB (Mycobacterium tuberculosis, UniProt P9WMR3); test: DnaB intein splicing inhibitors, dose response, biochemical, cell-free fluorescence (AID 449749); type: functional
T5 sequence (P9WMR3 whole entry): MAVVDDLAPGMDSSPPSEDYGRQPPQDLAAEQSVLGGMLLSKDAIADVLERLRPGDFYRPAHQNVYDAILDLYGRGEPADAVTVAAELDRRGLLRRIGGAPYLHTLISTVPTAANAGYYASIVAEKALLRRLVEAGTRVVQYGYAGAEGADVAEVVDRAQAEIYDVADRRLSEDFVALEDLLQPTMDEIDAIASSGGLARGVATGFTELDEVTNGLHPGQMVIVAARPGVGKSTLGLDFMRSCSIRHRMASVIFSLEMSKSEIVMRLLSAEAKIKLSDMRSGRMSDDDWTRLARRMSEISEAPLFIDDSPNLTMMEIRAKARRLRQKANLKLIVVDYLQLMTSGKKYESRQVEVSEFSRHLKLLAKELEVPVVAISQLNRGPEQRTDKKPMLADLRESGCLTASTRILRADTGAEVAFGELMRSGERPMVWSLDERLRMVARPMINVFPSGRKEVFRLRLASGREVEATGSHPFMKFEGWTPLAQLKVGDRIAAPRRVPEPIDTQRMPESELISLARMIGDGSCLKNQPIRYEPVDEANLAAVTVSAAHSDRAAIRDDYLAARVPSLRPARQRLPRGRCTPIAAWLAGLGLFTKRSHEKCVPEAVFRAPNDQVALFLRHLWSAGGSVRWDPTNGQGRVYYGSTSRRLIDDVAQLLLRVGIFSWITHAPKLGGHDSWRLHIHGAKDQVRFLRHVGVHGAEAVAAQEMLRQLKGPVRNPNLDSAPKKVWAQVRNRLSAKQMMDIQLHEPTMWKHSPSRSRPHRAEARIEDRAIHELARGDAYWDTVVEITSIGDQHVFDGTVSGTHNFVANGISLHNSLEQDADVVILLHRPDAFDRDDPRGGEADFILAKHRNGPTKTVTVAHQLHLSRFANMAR

[14] = non-specific 3'UTR reporter inhibition in Clone20-Shn3RL – cell-based, Renilla luciferase, cherry-picked, counter-screen for Shn3 inhibitor project, dose response (AID 624133); type: functional
[15] = molecular target: T6, Protein RecA (Mycobacterium tuberculosis, UniProt P9WHJ3); test: Fluorescence Cell-Free Homogeneous Dose Retest to Identify Inhibitors of RecA-Intein Splicing Activity. [Related pubchem assays (depositor defined):AID2097, AID2223, AID489010, AID492950]; type: functional
T6 sequence (P9WHJ3 whole entry): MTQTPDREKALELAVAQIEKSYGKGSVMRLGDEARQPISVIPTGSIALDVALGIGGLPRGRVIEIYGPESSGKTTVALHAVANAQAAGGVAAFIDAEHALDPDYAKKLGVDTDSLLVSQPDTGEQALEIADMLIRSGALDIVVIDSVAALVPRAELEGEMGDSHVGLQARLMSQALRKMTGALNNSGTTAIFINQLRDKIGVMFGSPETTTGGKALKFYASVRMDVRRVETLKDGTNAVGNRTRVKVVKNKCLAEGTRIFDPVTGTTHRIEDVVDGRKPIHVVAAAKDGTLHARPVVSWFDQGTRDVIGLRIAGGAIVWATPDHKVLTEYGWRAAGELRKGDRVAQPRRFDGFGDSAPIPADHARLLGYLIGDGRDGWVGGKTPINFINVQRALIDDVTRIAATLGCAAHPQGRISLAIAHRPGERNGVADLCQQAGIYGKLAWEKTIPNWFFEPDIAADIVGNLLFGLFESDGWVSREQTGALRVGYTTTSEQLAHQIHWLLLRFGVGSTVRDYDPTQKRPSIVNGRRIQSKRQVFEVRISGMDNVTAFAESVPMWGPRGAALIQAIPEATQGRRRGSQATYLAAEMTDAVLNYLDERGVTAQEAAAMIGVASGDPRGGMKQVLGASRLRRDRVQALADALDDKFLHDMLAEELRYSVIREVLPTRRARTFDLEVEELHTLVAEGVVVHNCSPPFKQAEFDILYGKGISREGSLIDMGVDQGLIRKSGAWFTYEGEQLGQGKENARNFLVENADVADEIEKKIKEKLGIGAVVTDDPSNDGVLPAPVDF

[16] = reduction of Shn3 3'UTR-driven luciferase in osteoblasts – cell-based, Clone20 osteoblasts, firefly luciferase, cherry-picked, dose response (AID 624132); type: functional;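 note: firefly luciferase luminescence from reporter carrying the Shn3 3'UTR in osteoblasts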
[17] = tested on: Vero; test: cells; type: functional; details: Chlorocebus sabaeus
[18] = loss of viability in HepG2 cells – cell-based, CellTiter-Glo, cherry-picked, cytotoxicity control for Shn3 inhibitor project, dose response (AID 624134); type: functional
[19] = tested on: Vero; test: mammalian cell viability reduction – secondary assay, cytotoxicity control for West Nile virus antiviral project, dose response (AID 1650); type: functional; details: Chlorocebus sabaeus

Peroxisome proliferator-activated receptor gamma/Nuclear receptor coactivator 1, sequence (P37231 whole entry): as the sequence (P37231 whole entry) above
Peroxisome proliferator-activated receptor gamma/Nuclear receptor coactivator 1, sequence (Q15788 whole entry, further chain): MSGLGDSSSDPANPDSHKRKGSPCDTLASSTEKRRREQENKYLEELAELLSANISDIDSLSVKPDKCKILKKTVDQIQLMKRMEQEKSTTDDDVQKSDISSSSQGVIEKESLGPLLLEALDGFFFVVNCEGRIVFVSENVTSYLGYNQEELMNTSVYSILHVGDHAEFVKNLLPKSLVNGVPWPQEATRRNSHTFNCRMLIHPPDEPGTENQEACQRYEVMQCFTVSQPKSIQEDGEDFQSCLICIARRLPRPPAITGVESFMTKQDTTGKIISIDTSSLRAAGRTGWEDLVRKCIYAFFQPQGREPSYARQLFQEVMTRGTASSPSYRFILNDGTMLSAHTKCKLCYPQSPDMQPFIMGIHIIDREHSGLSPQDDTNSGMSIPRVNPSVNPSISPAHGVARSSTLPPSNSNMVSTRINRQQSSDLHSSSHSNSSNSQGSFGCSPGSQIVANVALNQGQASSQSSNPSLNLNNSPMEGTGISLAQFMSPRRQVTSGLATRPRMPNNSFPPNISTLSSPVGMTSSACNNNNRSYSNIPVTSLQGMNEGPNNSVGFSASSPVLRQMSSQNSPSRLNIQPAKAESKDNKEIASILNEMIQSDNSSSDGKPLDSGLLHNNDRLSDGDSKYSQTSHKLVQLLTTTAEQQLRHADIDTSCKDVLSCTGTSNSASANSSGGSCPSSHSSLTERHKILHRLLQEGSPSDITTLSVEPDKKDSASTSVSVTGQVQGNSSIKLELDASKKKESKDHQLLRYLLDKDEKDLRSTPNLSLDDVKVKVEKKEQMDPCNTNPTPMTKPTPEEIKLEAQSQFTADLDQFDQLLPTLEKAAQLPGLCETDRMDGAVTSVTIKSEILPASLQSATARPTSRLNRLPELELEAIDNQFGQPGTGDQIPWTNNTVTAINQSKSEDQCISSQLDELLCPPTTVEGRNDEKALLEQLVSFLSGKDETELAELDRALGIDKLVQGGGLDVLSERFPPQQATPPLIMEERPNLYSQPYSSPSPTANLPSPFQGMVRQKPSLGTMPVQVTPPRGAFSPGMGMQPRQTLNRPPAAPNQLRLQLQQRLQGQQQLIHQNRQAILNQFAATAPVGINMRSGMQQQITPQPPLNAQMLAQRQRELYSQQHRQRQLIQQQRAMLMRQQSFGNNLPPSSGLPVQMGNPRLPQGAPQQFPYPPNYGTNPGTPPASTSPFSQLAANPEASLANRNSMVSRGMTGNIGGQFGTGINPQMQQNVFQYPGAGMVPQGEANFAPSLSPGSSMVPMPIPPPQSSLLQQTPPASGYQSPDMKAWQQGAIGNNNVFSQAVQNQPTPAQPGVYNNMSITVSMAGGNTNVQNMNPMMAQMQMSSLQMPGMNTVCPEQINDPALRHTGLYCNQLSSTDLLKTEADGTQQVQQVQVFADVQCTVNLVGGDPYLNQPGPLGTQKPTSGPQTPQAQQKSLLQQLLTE

Cc1sc2nc3c(SC(C)C(=O)O)cc(C(=O)c4ccccc4O)cn3c(=O)c2c1C (centres undefined)
EC50 [1]: 14.7 µM (not active) | EC50 [2]: 25.1 µM (not active) | EC50 [3]: 25.9 µM (not active) | CC50 [4]: 42.7 µM (active) | IC50 [5]: 41.5 µM (active) | IC50 [6]: 57.8 µM (active)

CCc1ccc(NC(=O)C2CC=CCC2C(=O)O)cc1 (centres undefined)
IC50 [7]: 3.48 µM (active) | IC50 [8]: > 59.6 µM (not active) | IC50 [9]: > 73.5 µM (not active)

Cc1cc(F)ccc1NCC(=O)Nc1ccc(Br)cc1C
CC50 [10]: > 40 µM (active)

CCOC(=O)c1c(NC(=O)C2C3C=CC(C3)C2C(=O)O)sc2c1CCC(CC)C2 (centres undefined)
IC50 [7]: 7.67 µM (active) | IC50 [11]: 1.91 µM (active) | IC50 [8]: > 59.6 µM (not active) | IC50 [9]: > 73.5 µM (not active) | IC50 [12]: 42.4 µM (active)

COc1ccccc1-c1nc2ccccc2c(=O)n1NC(=O)c1cccs1
IC50 [8]: > 59.6 µM (not active) | IC50 [6]: 15.8 µM (active) | IC50 [9]: > 73.5 µM (not active)

Cc1cc(C)c(-n2c(C)cc(/C=C3/NC(=O)NC3=O)c2C)c(C)c1
CC50 [4]: 11.2 µM (active) | IC50 [5]: 2.83 µM (active)

CCN(CC)CCNC(=O)CSc1c2c(nc3cc(Cl)ccc13)CCCC2
AC50 [13]: 241 µM (active) | AC50 [14]: 25.5 µM (active) | EC50 [15]: 11.8 µM (active) | AC50 [16]: 14.9 µM (active) | CC50 [17]: > 25 µM (active) | AC50 [18]: > 70 µM (inactive) | CC50 [19]: 18.8 µM (active)

COCCN(C(=O)CSc1nnc(-c2ccc(C)c(C)c2)o1)c1c(N)n(CC(C)C)c(=O)[nH]c1=O
IC50 [11]: 14.8 µM (active) | IC50 [5]: 13.3 µM (active)
